Results reported in patent EP0086660B1, “Renally active tetrapeptides” (SMITHKLINE BECKMAN CORPORATION, priority 1982, dated 1985).
Like-named read-outs stand apart in the source and are kept apart here. Square brackets hold non-standard residues; d marks the D form. Peptide text beside a SMILES is read from it. * marks the point of attachment. Butanoyl(4-(4-HOPh)) = O=C(CCCc1ccc(O)cc1)*

How the values were obtained:
[1] = test system: anesthetized dogs; assay: anesthetized dog protocol: infusion, measuring MAP, RBF, RVR and HR; type: in vivo
[2] = secondary test
[3] = test system: spontaneously hypertensive rat
[4] = test system: toad bladder
[5] = secondary test; remark: listed apart in the source
[6] = cumulative effects at 300 µg/kg/min

Compound: 4-(4-hydroxyphenyl)-butyryl-L-prolyl-D,L-a-methylphenylalanyl-glycyl-L-proline [Example 2]
- Renal blood flow ([1]; cumulative effect, measured after the normal period of the test, increased from 127 ml/min): 162 mL/min
- cardiac rate (HR) ([1]; cumulative effect, measured after the normal period of the test, predrug level 140 BPM): 105 BPM
- ED15 [2]: 1.9 pg/kg
- activity in the spontaneously hypertensive rat protocol ([3]; rat, in vivo): not active
- water diuresis ([3]; spontaneously hypertensive rat protocol): slight water diuresis
- reversal of antidiuretic hormone activity [4]: inactive

Compound: NCCc1ccc(O)c(O)c1 [Dopamine, dopamine]
- ED15 [5]: 3.5 µg/kg

Compound: O=C(NCC(=O)N1CCC[C@H]1C(=O)O)[C@@H](Cc1ccccc1)NC(=O)[C@@H]1CCCN1C(=O)CCCc1ccc(O)cc1 [Example 3, N-4-(4-hydroxyphenyl)-butyryl-L-prolyl-D-phenylalanyl-glycyl-L-proline] ({Butanoyl(4-(4-HOPh))}-P[dF]GP-OH)
- HR [1, 6]: -8
- RBF [1, 6]: +22
- RVR ([1]; cumulative effects at 300 µg/kg/min, parameter name not printed before the value): -18
